Test results taken from patent US20100035888A1, “Diaryl Urea for Treating Pulmonary Hypertension” (Bater Healthcare AG, priority 2005, published 2010).

System: monocrotaline-treated rats with pulmonary hypertension
Test: Pulmonary artery pressure in monocrotaline treated rats (MCT-induced pulmonary arterial hypertension)
Format: in vivo, rat
Details: 3 mg/kg by gavage once daily from day 14 to day 28 after MCT
Method: The effects of the compounds and drug combinations according to the invention are tested in vitro on isolated rat pulmonary arteries and in vivo in monocrotaline-treated rats with pulmonary hypertension.
Male Sprague Dawley rats (250-300 g) are treated with monocrotaline 60 mg/kg subcutanously (=day 0). On day 14 after monocrotaline injection treatment the compound/combination to be tested is administered. On day 28 hemodynamic parameters, i.e. right ventricular pressure, systemic blood pressure, heart rate, arterial and venous oxygen saturation are measured and compared with untreated control animals.
Monocrotaline (MCT) treated rats are randomized to receive 4{4-[3-(4-chloro-3-trifluoromethylphenyl)-ureido]-3-fluorophenoxy}-pyridine-2-carboxylic acid methylamide 3 mg/kg or vehicle by gavage once daily after the onset of moderate pulmonary arterial hypertension starting 14 days after the injection of MCT until day 28. […]

With `CNC(=O)c1cc(Oc2ccc(NC(=O)Nc3ccc(Cl)c(C(F)(F)F)c3)c(F)c2)ccn1` [BAY73-4506, 4{4-[3-(4-chloro-3-trifluoromethylphenyl)-ureido]-3-fluorophenoxy}-pyridine-2-carboxylic acid methylamide] the mortality rate (control 0%, placebo 40%) was 0% and the “right ventricle/left ventricle+septum ratio (right ventricular hypertrophy)” value (mean±SEM, control 0.25±0.01, placebo 0.62±0.02) was 0.28±0.01.
